Reference: ChEMBL document CHEMBL3046466 (Med Chem Res, 2012)

Target: Voltage-dependent L-type calcium channel subunit alpha-1C (Cavia porcellus, UniProt O35505)
Assay: Inhibition of Calcium channel in Cavia porcellus albino (guinea pig) ileocecal SMC assessed as inhibition of 80 mM KCl-induced contraction
Conditions: for IC30: guinea pig

Chain of Voltage-dependent L-type calcium channel subunit alpha-1C (O35505 whole entry): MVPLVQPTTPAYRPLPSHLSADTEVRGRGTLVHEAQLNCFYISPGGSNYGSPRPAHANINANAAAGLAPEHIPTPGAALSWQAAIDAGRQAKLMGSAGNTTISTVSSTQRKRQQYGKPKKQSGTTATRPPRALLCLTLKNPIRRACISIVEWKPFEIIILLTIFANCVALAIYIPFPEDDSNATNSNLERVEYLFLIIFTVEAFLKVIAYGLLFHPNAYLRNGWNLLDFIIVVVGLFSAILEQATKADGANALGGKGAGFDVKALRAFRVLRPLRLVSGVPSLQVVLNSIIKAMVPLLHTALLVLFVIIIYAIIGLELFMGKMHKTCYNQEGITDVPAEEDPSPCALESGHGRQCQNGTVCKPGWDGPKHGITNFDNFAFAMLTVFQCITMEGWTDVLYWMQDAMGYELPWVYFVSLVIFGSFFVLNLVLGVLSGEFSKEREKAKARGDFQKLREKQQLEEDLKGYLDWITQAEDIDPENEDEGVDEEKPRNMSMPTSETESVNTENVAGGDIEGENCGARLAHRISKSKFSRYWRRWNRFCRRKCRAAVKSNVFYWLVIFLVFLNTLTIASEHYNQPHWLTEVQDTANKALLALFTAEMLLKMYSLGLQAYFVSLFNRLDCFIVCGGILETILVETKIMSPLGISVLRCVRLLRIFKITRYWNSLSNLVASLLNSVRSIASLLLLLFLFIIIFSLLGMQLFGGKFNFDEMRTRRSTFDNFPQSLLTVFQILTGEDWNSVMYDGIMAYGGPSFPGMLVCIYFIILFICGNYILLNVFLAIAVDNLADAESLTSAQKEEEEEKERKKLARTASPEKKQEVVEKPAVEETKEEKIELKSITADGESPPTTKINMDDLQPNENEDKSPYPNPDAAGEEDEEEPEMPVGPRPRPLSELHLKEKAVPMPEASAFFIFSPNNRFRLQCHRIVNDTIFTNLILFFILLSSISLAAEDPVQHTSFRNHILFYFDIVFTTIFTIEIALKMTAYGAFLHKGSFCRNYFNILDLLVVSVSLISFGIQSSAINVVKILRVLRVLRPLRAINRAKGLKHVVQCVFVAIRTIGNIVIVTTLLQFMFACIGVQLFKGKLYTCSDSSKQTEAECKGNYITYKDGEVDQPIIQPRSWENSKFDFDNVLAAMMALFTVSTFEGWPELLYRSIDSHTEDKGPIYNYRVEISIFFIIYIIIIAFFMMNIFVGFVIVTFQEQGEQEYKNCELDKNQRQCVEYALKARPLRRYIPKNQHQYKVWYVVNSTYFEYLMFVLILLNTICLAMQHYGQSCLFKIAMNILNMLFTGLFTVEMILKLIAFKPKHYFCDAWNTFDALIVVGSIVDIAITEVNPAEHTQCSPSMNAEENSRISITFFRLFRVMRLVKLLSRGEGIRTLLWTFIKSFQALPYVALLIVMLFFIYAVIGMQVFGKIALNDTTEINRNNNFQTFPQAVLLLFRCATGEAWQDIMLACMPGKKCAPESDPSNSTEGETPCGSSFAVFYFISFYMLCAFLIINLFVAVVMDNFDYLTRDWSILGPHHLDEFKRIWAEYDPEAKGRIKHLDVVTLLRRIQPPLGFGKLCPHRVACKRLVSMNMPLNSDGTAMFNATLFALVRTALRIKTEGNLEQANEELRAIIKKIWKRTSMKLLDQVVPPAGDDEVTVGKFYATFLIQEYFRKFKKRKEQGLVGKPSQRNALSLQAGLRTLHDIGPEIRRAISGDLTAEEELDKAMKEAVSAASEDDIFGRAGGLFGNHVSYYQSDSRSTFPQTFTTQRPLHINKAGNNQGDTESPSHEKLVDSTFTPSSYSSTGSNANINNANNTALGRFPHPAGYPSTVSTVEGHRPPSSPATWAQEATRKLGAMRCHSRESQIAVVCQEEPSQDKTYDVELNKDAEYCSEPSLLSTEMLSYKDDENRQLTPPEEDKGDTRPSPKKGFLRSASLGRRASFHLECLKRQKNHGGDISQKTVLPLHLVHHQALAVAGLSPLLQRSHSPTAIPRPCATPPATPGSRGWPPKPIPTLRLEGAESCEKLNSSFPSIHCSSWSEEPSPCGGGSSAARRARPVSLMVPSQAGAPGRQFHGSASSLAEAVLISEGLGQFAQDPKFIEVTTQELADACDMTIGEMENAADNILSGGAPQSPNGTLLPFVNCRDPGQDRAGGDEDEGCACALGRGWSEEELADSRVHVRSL

SMILES | IC50 [µM] | IC30
CCOC(=O)C1=C(C)NC(C)=C(C(=O)OCC)C1c1cc(=O)cc(C)o1 | 35.9 | 1.45 ×10⁻⁶ M
COC(=O)C1=C(C)NC(C)=C(C(=O)OC)C1c1ccc(-c2cc(=O)cc(C)o2)cc1 | 17.8 | 3.67 ×10⁻⁶ M
CCOC(=O)C1=C(C)NC(C)=C(C(=O)OCC)C1c1ccc(-c2cc(=O)cc(-c3ccccc3)o2)cc1 | 12.2 | 6.12 ×10⁻⁶ M
COC(=O)C1=C(C)NC(C)=C(C(=O)OC)C1c1ccccc1[N+](=O)[O-] [NIFEDIPINE] | – | 1.6 ×10⁻⁸ M
COC(=O)C1=C(C)NC(C)=C(C(=O)OC)C1c1ccc(-c2cc(=O)cc(-c3ccccc3)o2)cc1 | 4.71 | 1.26 ×10⁻⁶ M
CCOC(=O)C1=C(C)NC(C)=C(C(=O)OC)C1c1ccc(-c2cc(=O)cc(C)o2)cc1 (stereo unspecified) | 86.1 | 4.62 ×10⁻⁶ M
CCOC(=O)C1=C(C)NC(C)=C(C(=O)OC)C1c1ccc(-c2cc(=O)cc(-c3ccccc3)o2)cc1 (stereo unspecified) | 94.4 | 4.62 ×10⁻⁶ M

Results, then the molecule that gave them:

IC50 [µM] | IC30 | SMILES
3.24 | 1.01 ×10⁻⁶ M | CCOC(=O)C1=C(C)NC(C)=C(C(=O)OCC)C1c1cc(=O)cc(-c2ccccc2)o1
2.14 | 7.2 ×10⁻⁷ M | CCOC(=O)C1=C(C)NC(C)=C(C(=O)OCC)C1c1ccc(-c2cc(=O)cc(C)o2)cc1
2.03 | 7.18 ×10⁻⁷ M | CCOC(=O)C1=C(C)NC(C)=C(C(=O)OC)C1c1cc(=O)cc(-c2ccccc2)o1 (stereo unspecified)
1.63 | 5.38 ×10⁻⁷ M | CCOC(=O)C1=C(C)NC(C)=C(C(=O)OC)C1c1cc(=O)cc(C)o1 (stereo unspecified)
